Experimental data: US20230250096A1, “SUBSTITUTED PHENYL-1H-PYRROLO[2,3-c] PYRIDINE DERIVATIVES” (Janssen Pharmaceutica NV, priority 2021, published 2023)

Tests used:
[1] = biological target: T1, menin/MLL (terbium chelate-labeled menin, FITC-MBM1 peptide) (Homo sapiens, UniProt O00255, T541A); test: Menin/MLL homogenous time-resolved fluorescence (HTRF) assay; format: binding; conditions: 30 min incubation
T1 construct: Menin (a.a 1-610-6xhis tag, 2.3 mg/mL in 20 mM Hepes)
T1 sequence (O00255 with tags, fused parts or gaps T541A): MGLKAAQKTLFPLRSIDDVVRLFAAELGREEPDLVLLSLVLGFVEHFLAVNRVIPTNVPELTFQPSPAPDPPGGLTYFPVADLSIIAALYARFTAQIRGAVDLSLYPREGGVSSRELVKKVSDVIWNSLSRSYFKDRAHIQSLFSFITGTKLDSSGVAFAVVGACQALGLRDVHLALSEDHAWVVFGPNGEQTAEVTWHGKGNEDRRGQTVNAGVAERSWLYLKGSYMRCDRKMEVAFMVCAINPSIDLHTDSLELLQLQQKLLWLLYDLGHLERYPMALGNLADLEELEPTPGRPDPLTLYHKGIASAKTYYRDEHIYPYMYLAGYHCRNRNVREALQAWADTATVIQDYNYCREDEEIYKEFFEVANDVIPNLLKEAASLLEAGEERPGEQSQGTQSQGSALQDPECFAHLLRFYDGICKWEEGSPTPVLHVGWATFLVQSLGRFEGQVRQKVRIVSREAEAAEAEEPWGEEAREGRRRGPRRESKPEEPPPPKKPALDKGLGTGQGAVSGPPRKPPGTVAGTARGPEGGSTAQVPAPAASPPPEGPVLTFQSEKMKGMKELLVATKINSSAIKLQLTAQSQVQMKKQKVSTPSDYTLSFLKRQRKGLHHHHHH
In short: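 Competition binding read by time-resolved FRET (FITC 520 nm over terbium 490 nm) after compound meets labeled menin 1-610-His […] for 30 min, then FITC-MBM1 (75 nM) for 15 min, ambient temperature, 0.5% DMSO. Eleven-point four-fold dilutions, usually starting at 10 μM, fitted to four-parameter curves for IC50.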

MEIS1 mRNA expression = MEIS1 mRNA expression assay (Quantigene Singleplex) in MOLM14 cells; format: cell-based, human; conditions: 48 hours incubation
In short: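 Read-out: MEIS1 transcript counts, background-subtracted and divided by RPL28, expressed as fold change over DMSO-treated cells, then dose-response modelled for IC50. MOLM14 cells (3,750/well) received graded compound for 48 h before lysis and QuantiGene hybridization at 55 °C.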

| Compound | IC50 [1] [nM] | IC50 (MEIS1 mRNA expression; Homo sapiens, MOLM-14, 48 h) [nM] | IC50 (MEIS1 mRNA expression) [nM] |
| --- | --- | --- | --- |
| Cc1cncc2c1c(C[C@@H]1CCN(CC3CCN(C(=O)C(C)(C)O)CC3)C1)cn2-c1ccc(F)cc1C(=O)N1CC2CC1CO2 (stereo partly shown) [Compound 345] | 0.204 | 36 | – |
| Cc1cncc2c1c(C[C@@H]1CCN(CC3CCOCC3)C1)cn2-c1ccc(F)cc1C(=O)N1CCC(O)C1C (stereo in doubt) [Compound 358] | 0.223 | 386 | – |
| Cc1cncc2c1c(C[C@@H]1CCN(C[C@@H]3CCNC(=O)CC3)C1)cn2-c1ccc(F)cc1C(=O)N1CCC2CC21 (single isomer, unassigned) [Compound 351b] | 0.255 | 182 | – |
| CC(=O)N1CCC([C@H](C)N2CC[C@@H](Cc3cn(-c4ccc(F)cc4[S@@](=N)(=O)C(C)C)c4cncc(C)c34)C2)CC1 (single isomer, unassigned) [Compound 231b] | 6.94 | > 1000 | – |
| Cc1cncc2c1c(CC1CN(CC3CCC4(CC3)OCCO4)C1)cn2-c1ccc(F)cc1C(=O)N(C)C(C)C [Compound 92] | 0.219 | 52 | – |
| CC(=O)N1CCC[C@H](CN2CC(Cc3cn(-c4ccc(F)cc4C(=O)N(C)C(C)C)c4cncc(C)c34)C2)C1 (single isomer, unassigned) [Compound 90a] | 0.391 | ~127 | – |
| CC(=O)N1CCC([C@@H](C)N2CC[C@H](Cc3cn(-c4ccc(F)cc4[S@](=N)(=O)C(C)C)c4cncc(C)c34)C2)CC1 (single isomer, unassigned) [Compound 232a] | 0.624 | ~448 | – |
| CC(=O)N1CC[C@@H](CN2CCC(Cc3cn(-c4ccc(F)cc4C(=O)N(C)C(C)C)c4cncc(C)c34)CC2)C1 [Compound 112] | 0.555 | 345 | – |
| CN=[S@@](=O)(c1cc(F)ccc1-n1cc(C[C@@H]2CCN(CC3CCN(C(C)=O)CC3)C2)c2c(C)cncc21)C(C)C (single isomer, unassigned) [Compound 128c] | 1.01 | ~487 | – |
| COCCN(C)CCCC(C(C)C)N1CCC(Cc2cn(-c3ccc(F)cc3C(=O)N(C)C(C)C)c3cncc(C(F)(F)F)c23)C1 (stereo not shown) [Compound 7] | 0.305 | 158 | – |
| CCC1CCCN1C(=O)c1cc(F)ccc1-n1cc(C[C@@H]2CCN(CC3CCN(C(=O)C(C)(C)O)CC3)C2)c2c(C)cncc21 (stereo partly shown) [Compound 342] | 0.188 | 107 | – |
| Cc1cncc2c1c(CC1CN(CC(=O)N3CCC(F)(F)C3)C1)cn2-c1ccc(F)cc1C(=O)N(C)C(C)C [Compound 96] | 4.57 | 3690 | – |
| Cc1cncc2c1c(C[C@H]1CCN([C@@H](C)C3CCOCC3)C1)cn2-c1ccc(F)cc1[S@](=N)(=O)C(C)C (single isomer, unassigned) [Compound 181b] | 4.58 | 1910 | – |
| CCN(C(=O)c1cc(F)ccc1-n1cc(CC2CN(C(C(C)C)[C@H]3C[C@H](N4CCN(S(C)(=O)=O)CC4)C3)C2)c2c(C)cncc21)C(C)C (stereo partly shown) [Compound 37b] | 0.237 | 28 | – |
| Cc1cncc2c1c(C[C@H]1CCN([C@H](C)C3CCOCC3)C1)cn2-c1ccc(F)cc1[S@@](=N)(=O)C(C)C (single isomer, unassigned) [Compound 183a] | 0.37 | 307 | – |
| COCC1CCCN1C(=O)c1cc(F)ccc1-n1cc(CC2CN(CC3CCOCC3)C2)c2c(C)cncc21 (stereo not shown) [Compound 267] | 0.24 | 166 | – |
| Cc1cncc2c1c(C[C@@H]1CCN([C@H](CCO)C3CCOCC3)C1)cn2-c1ccc(F)cc1C(=O)N(C)C(C)C (single isomer, unassigned) [Compound 253a] | 1.47 | ~540 | – |
| Cc1cncc2c1c(CC1CN(CC(=O)N3CCCCC3)C1)cn2-c1ccc(F)cc1C(=O)N(C)C(C)C [Compound 98] | 0.747 | ~535 | – |
| Cc1cncc2c1c(C[C@@H]1CCN(CC3CCOCC3)C1)cn2-c1ccc(F)cc1[S@](=N)(=O)C(C)C (single isomer, unassigned) [Compound 78b] | 0.552 | – | 361 |
| Cc1cncc2c1c(C[C@H]1CCN(CC3CCN(C(=O)C4(O)CC4)CC3)C1)cn2-c1ccc(F)cc1C(=O)N(C)C(C)C [Compound 245] | 0.185 | 65 | – |
| CC(=O)N1CCC(CN2C[C@H](Cc3cn(-c4ccc(F)cc4C(=O)N(C)C(C)C)c4cncc(C)c34)C[C@@H]2C)CC1 [Compound 132] | 1.21 | ~573 | – |
| Cc1cncc2c1c(CC1CN(CC3CCOCC3)C1)cn2-c1ccc(F)cc1C(=O)N1CC2(O)CC1C2 [Compound 273] | 1.08 | > 1000 | – |
| Cc1cncc2c1c(CC1CN(C3CCCNC(=O)C3)C1)cn2-c1ccc(F)cc1C(=O)N(C)C(C)C (stereo not shown) [Compound 290] | 0.393 | 170 | – |
| Cc1cncc2c1c(C[C@@H]1CCN(CC3CCN(C(=O)C(C)C)CC3)C1)cn2-c1ccc(F)cc1C(=O)N1CC(O)CC1C (stereo partly shown) [Compound 333] | 0.251 | ~394 | – |
| Cc1cncc2c1c(CC1CN(CC(=O)N3CC4CC4C3)C1)cn2-c1ccc(F)cc1C(=O)N(C)C(C)C (stereo not shown) [Compound 97] | 1.97 | 1610 | – |
| CC(=O)N1CC2CC1C2C(C)N1CC(Cc2cn(-c3ccc(F)cc3C(=O)N(C)C(C)C)c3cncc(C)c23)C1 (stereo not shown) [Compound 304] | 2.8 | > 1000 | – |

More lines, in order of falling IC50 [1], values ahead:

| IC50 [1] [nM] | IC50 (MEIS1 mRNA expression; Homo sapiens, MOLM-14, 48 h) [nM] | IC50 (MEIS1 mRNA expression) [nM] | Compound |
| --- | --- | --- | --- |
| 0.182 | ~680 | – | CC(=O)N1C[C@@H]2CN([C@H]3C[C@H](C(C(C)C)N4CC(Cc5cn(-c6ccc(F)cc6C(=O)N(C)C(C)C)c6cncc(Cl)c56)C4)C3)C[C@H]2C1 (single isomer, unassigned) [Compound 40b] |
| 0.179 | ~77 | – | CC(=O)N1CCC2(CCCC(N3CC(Cc4cn(-c5ccc(F)cc5C(=O)N(C)C(C)C)c5cncc(C)c45)C3)C2)C1 (stereo not shown) [Compound 303] |
| 0.13 | 10 | – | Cc1cncc2c1c(C[C@@H]1CCN(CC3CCN(C(=O)C(C)C)CC3)C1)cn2-c1ccc(F)cc1C(=O)N(C[C@H](C)O)C(C)C [Compound 330] |
| 0.13 | 196 | – | Cc1cncc2c1c(CC1CCN(CC3CCN(C(=O)C(C)C)CC3)C1)cn2-c1ccc(F)cc1C(=O)N1CC(O)CC1C (stereo not shown) [Compound 332] |
| 0.127 | 107 | – | Cc1cncc2c1c(C[C@@H]1CCN(CC3CCOCC3)C1)cn2-c1ccc(F)cc1C(=O)N1CCC[C@H]1CO [Compound 360] |
| 0.119 | 351 | – | CC(=O)N1CCC(CN2CC[C@@H](Cc3cn(-c4ccc(F)cc4C(=O)N4CCC45CCC5)c4cncc(C)c34)C2)CC1 [Compound 310] |
| 0.093 | – | ~174 | Cc1cncc2c1c(C[C@@H]1CCN(CC3CCOCC3)C1)cn2-c1ccc(F)cc1C(=O)N1CCCC1C(C)O (single isomer, unassigned) [Compound 363b] |
| 0.064 | 5 | – | CCNC(=O)[C@H]1CC[C@H](CN2CC(Cc3cn(-c4ccc(F)cc4C(=O)N(C)C(C)C)c4cncc(C)c34)C2)CC1 [Compound 143] |
| 0.06 | 20 | – | Cc1cncc2c1c(C[C@@H]1CCN(C(C)C3CCOCC3)C1)cn2-c1ccc(F)cc1C(=O)N(C)C(C)C (mixture of isomers) [Compound 48] |
| 0.055 | 107 | – | CC(=O)N1C[C@@H]2CN([C@H]3C[C@@H](C(C)N4CC[C@@H](Cc5cn(-c6ccc(F)cc6C(=O)N(C)C(C)C)c6cncc(C)c56)C4)C3)C[C@H]2C1 (mixture of isomers) [Compound 28] |
| 0.043 | 32 | – | Cc1cncc2c1c(CC1CCN(C[C@H]3CC[C@H](NS(C)(=O)=O)CC3)C1)cn2-c1ccc(F)cc1C(=O)N(C)C(C)C (single isomer, unassigned) [Compound 68] |
| 0.038 | 19 | – | CC[C@H]([C@H]1C[C@H](N2C[C@H]3CN(C(C)=O)C[C@@H]3C2)C1)N1CC[C@H](Cc2cn(-c3ccc(F)cc3C(=O)N(C)C(C)C)c3cncc(Cl)c23)C1 (single isomer, unassigned) [Compound 27b] |
| 0.034 | > 1000 | – | Cc1cncc2c1c(C[C@@H]1CCN(CC3CCN(C(=O)C(C)(C)O)CC3)C1)cn2-c1ccc(F)cc1C(=O)N1CCCC12CC2 [Compound 340] |
| 0.031 | 138 | – | CCc1cncc2c1c(C[C@@H]1CCN(CC3CCN(C(C)=O)CC3)C1)cn2-c1ccc(F)cc1C(=O)N(C)C(C)C [Compound 259] |
| 0.021 | 17 | – | Cc1cncc2c1c(C[C@@H]1CCN(C(CCCN3CCC(S(C)(=O)=O)CC3)C(C)C)C1)cn2-c1ccc(F)cc1C(=O)N(C)C(C)C (mixture of isomers) [Compound 10] |
